Series [1] concerns OHS osteosarcoma xenografts. Kind of series: Tissue distribution of 223Ra in Caelyx liposomes, nude mice with OHS osteosarcoma xenografts (Example 2). Format: in vivo. The protocol: 10 nude mice were prepared with OHS osteosarcoma xenografts. Each mouse was trated subcutaneously with one dose of 375 kBq/kg of 223Ra encapsulated in Caelyx lipsomes as prepared in Example 1.
After 1 hour, one day and four days, three, three and four animals were sacrificed respectively and the tissue distribution of radioactive material was measured.
The distribution of radionuclide was also compared with a control in which the radium was administered as a salt in a solution of liposomes but not encapsulated thereby.

Series [2] can be described thus: Main biodistribution and blood clearance study with four days pre-treatment; liposomal vs free 223Ra (Example 4). It is filed as in vivo, Balb/C mice. As to conditions: i.v. The protocol:
In the main study, the mice were divided into four different groups. Each group consisted of 6-7 animals of both sexes. […] One mouse in each of groups two, three and four, were left untreated and were used to measure possible reuptake of the product from faeces or the bedding.
Blood was withdrawn, the mice were euthanised and the radioactivity measurements were performed in the same manner as in Example 3, 1 hour, 24 hours, 6 days and 14 days post injection for the respective groups of mice.
To study the difference between liposomally encapsulated and free ^223Ra, a group of mice was injected intravenously with dissolved ^223RaCl.

These results are taken from US20080193374A1, “Liposomes Enclosing a Radionuclide and a Cytotoxic Agent for Combination Therapy” (priority 2004, published 2008).

In the case of `[Cl][223Ra][Cl]` [free ^223Ra, ^223RaCl], the clearance from blood result in series [1] is “rapid clearance”. Further, in series [2], the “half-life (T1/2) circulating in the blood” value is “less than 1 hours”.
